Assay results from the NIST ThermoML archive (doi:10.1016/j.fluid.2019.05.003).

Assay: xn = mol fraction of the nth substance listed
Conditions: 101 kPa, Liquid; for viscosity: Falling or rolling sphere viscometry; for mass density: Vibrating tube method

CC[N+](C)(C)CCO.[Br-] [ethyl(2-hydroxyethyl)dimethylammonium bromide] + O
Conditions	mass density [kg/m3]	viscosity [mPa·s]
298.15 K, x1 = 0.026	1061.1	1.249
298.15 K, x1 = 0.049	1103.4	1.613
298.15 K, x1 = 0.068	1132.6	2.066
298.15 K, x1 = 0.086	1155.4	2.594
298.15 K, x1 = 0.119	1190.7	4.028
298.15 K, x1 = 0.156	1220	6.186
298.15 K, x1 = 0.185	1238.4	9.494
298.15 K, x1 = 0.214	1254.1	13
298.15 K, x1 = 0.257	1273.4	20.35
298.15 K, x1 = 0.319	1293.9	35.33
303.15 K, x1 = 0.026	1059.2	1.117
303.15 K, x1 = 0.049	1101.3	1.463
303.15 K, x1 = 0.068	1130.3	1.836
303.15 K, x1 = 0.086	1153	2.292
303.15 K, x1 = 0.119	1188.1	3.487
303.15 K, x1 = 0.156	1217.2	5.347
303.15 K, x1 = 0.185	1235.6	8.22
303.15 K, x1 = 0.214	1251.3	11.13
303.15 K, x1 = 0.257	1270.5	17.24
303.15 K, x1 = 0.319	1290.9	29.38
308.15 K, x1 = 0.026	1057.2	1.017
308.15 K, x1 = 0.049	1099.1	1.296
308.15 K, x1 = 0.068	1127.9	1.645
308.15 K, x1 = 0.086	1150.4	2.046
308.15 K, x1 = 0.119	1185.4	3.095
308.15 K, x1 = 0.156	1214.5	4.593
308.15 K, x1 = 0.185	1232.8	7.127
308.15 K, x1 = 0.214	1248.4	9.581
308.15 K, x1 = 0.257	1267.6	14.63
308.15 K, x1 = 0.319	1288	24.38
313.15 K, x1 = 0.026	1055.1	0.917
313.15 K, x1 = 0.049	1096.7	1.171
313.15 K, x1 = 0.068	1125.4	1.484
313.15 K, x1 = 0.086	1147.9	1.839
313.15 K, x1 = 0.119	1182.7	2.771
313.15 K, x1 = 0.156	1211.7	4.112
313.15 K, x1 = 0.185	1229.9	6.185
313.15 K, x1 = 0.214	1245.5	8.263
313.15 K, x1 = 0.257	1264.6	12.43
313.15 K, x1 = 0.319	1285	20.45
318.15 K, x1 = 0.026	1052.6	0.841
318.15 K, x1 = 0.049	1093.9	1.068
318.15 K, x1 = 0.068	1122.8	1.35
318.15 K, x1 = 0.086	1145.2	1.663
318.15 K, x1 = 0.119	1179.9	2.486
318.15 K, x1 = 0.156	1208.8	3.655
318.15 K, x1 = 0.185	1227	5.378
318.15 K, x1 = 0.214	1242.5	7.16
318.15 K, x1 = 0.257	1261.7	10.68
318.15 K, x1 = 0.319	1282	17.3
323.15 K, x1 = 0.026	–	0.775
323.15 K, x1 = 0.049	–	0.98
323.15 K, x1 = 0.068	–	1.234
323.15 K, x1 = 0.086	–	1.513
323.15 K, x1 = 0.119	–	2.242
323.15 K, x1 = 0.156	–	3.307
323.15 K, x1 = 0.185	–	4.688
323.15 K, x1 = 0.214	–	6.248
323.15 K, x1 = 0.257	–	9.249
323.15 K, x1 = 0.319	–	14.91
